Experimental findings from ChEMBL document CHEMBL5126526, “Non-nucleoside structured compounds with antiviral activity-past 10 years (2010-2020)” (2022) are described below.

This assay concerns Influenza A virus. Put plainly: Antiviral activity against influenza A virus (A/California/04/2009 (H1N1pdm)) infected in BALB/c mouse assessed as fold reduction in viral titers in lung homogenates at 20 mg/kg per day, po BID treated 2 hrs prior to viral infection followed by compound redosing at 12 hrs for 6 days. The format is functional.

Regarding `O=C(O)[C@H]1C2CCC(CC2)[C@@H]1Nc1nc(-c2c[nH]c3ncc(F)cc23)ncc1F` [PIMODIVIR], the “fold change (FC)” value came out at 100.
